Measured values: the CheMixHub viscosity set

Experiment: xn = mol fraction of the nth substance listed

O=C(O)CCl + CC(C)=O
viscosity [mPa·s], 101 kPa
Conditions | x1 = 0.1359 | x1 = 0.1855 | x1 = 0.2889 | x1 = 0.3789 | x1 = 0.4791 | x1 = 0.6971 | x1 = 0.8145
298.15 K | 0.4351 | 0.5339 | 0.7329 | 0.9727 | 1.345 | – | –
308.15 K | 0.394 | 0.4777 | 0.6435 | 0.8439 | 1.131 | 2.166 | –
323.15 K | 0.3409 | 0.4134 | 0.5393 | 0.6876 | 0.9042 | 1.6 | 2.123

CCCCCCCCCCCCCCCC + CCCCCCCC
Conditions | viscosity [mPa·s]
298.15 K, 101.33 kPa, x2 = 0.1039 | 2.656
298.15 K, 101.33 kPa, x2 = 0.2122 | 2.305
298.15 K, 101.33 kPa, x2 = 0.3109 | 1.973
298.15 K, 101.33 kPa, x2 = 0.4114 | 1.682
298.15 K, 101.33 kPa, x2 = 0.5033 | 1.452
298.15 K, 101.33 kPa, x2 = 0.6068 | 1.205
298.15 K, 101.33 kPa, x2 = 0.7096 | 0.982
298.15 K, 101.33 kPa, x2 = 0.8067 | 0.7957
298.15 K, 101.33 kPa, x2 = 0.9049 | 0.6421
318.16 K, 101 kPa, x1 = 0.15 | 0.5758
318.16 K, 101 kPa, x1 = 0.3499 | 0.8378
318.16 K, 101 kPa, x1 = 0.5001 | 1.073
318.16 K, 101 kPa, x1 = 0.6398 | 1.317
318.16 K, 101 kPa, x1 = 0.7996 | 1.627

O=CC(Cl)(Cl)Cl + CC(C)CCO
313.15 K, 101 kPa
Conditions | viscosity [mPa·s]
x1 = 0.0715 | 2.825
x1 = 0.2226 | 4.098
x1 = 0.2851 | 4.684
x1 = 0.3509 | 5.476
x1 = 0.4001 | 6.07
x1 = 0.4335 | 6.48
x1 = 0.4573 | 6.923
x1 = 0.4722 | 6.922
x1 = 0.4823 | 6.831
x1 = 0.4926 | 6.751
x1 = 0.5251 | 6.026
x1 = 0.5576 | 5.406
x1 = 0.6165 | 3.935
x1 = 0.7376 | 2.151
x1 = 0.8868 | 1.283

CCCCCCCCCC(=O)OC + CCCCCCCCCCC
viscosity [mPa·s], 100 kPa
Conditions | x2 = 0.0986 | x2 = 0.1998 | x2 = 0.2992 | x2 = 0.3988 | x2 = 0.4974 | x2 = 0.5994 | x2 = 0.6999 | x2 = 0.7993 | x2 = 0.899
293.15 K | 1.97 | 1.831 | 1.717 | 1.611 | 1.516 | 1.425 | 1.342 | 1.272 | 1.219
298.15 K | 1.783 | 1.662 | 1.559 | 1.468 | 1.386 | 1.306 | 1.234 | 1.169 | 1.124
303.15 K | 1.625 | 1.517 | 1.427 | 1.344 | 1.268 | 1.198 | 1.137 | 1.08 | 1.039
308.15 K | 1.487 | 1.392 | 1.311 | 1.237 | 1.171 | 1.109 | 1.053 | 1.002 | 0.964
313.15 K | 1.368 | 1.283 | 1.211 | 1.145 | 1.083 | 1.029 | 0.978 | 0.932 | 0.897
318.15 K | 1.264 | 1.187 | 1.122 | 1.062 | 1.007 | 0.958 | 0.912 | 0.871 | 0.838
323.15 K | 1.172 | 1.102 | 1.044 | 0.99 | 0.939 | 0.894 | 0.853 | 0.815 | 0.786

O=CC(Cl)(Cl)Cl + O
323.15 K, 101 kPa
Conditions | viscosity [mPa·s]
x1 = 0.05 | 1.031
x1 = 0.1 | 1.731
x1 = 0.15 | 2.671
x1 = 0.2 | 4.156
x1 = 0.25 | 5.987
x1 = 0.3 | 8.751
x1 = 0.35 | 11.36
x1 = 0.4 | 14.33
x1 = 0.425 | 15.57
x1 = 0.45 | 16.37
x1 = 0.465 | 17.06
x1 = 0.475 | 17.38
x1 = 0.49 | 17.26
x1 = 0.5 | 16.72
x1 = 0.55 | 14.07
x1 = 0.6 | 11.39
x1 = 0.7 | 5.695
x1 = 0.8 | 2.681
x1 = 0.9 | 1.447

O=C(O)[C@@H]1CCCN1 + O
viscosity [mPa·s], 101 kPa
Conditions | x1 = 0.00045 | x1 = 0.0009 | x1 = 0.00135 | x1 = 0.001798 | x1 = 0.002245 | x1 = 0.002695 | x1 = 0.003143 | x1 = 0.003588
293.15 K | 1.009 | 1.018 | 1.027 | 1.036 | 1.045 | 1.054 | 1.064 | 1.073
298.15 K | 0.8966 | 0.9039 | 0.9114 | 0.9192 | 0.9269 | 0.9349 | 0.9428 | 0.9507
303.15 K | 0.8027 | 0.809 | 0.8154 | 0.8221 | 0.8288 | 0.8354 | 0.8421 | 0.8487
308.15 K | 0.7236 | 0.7289 | 0.7344 | 0.7401 | 0.7456 | 0.7513 | 0.757 | 0.7625
313.15 K | 0.6566 | 0.6611 | 0.6658 | 0.6705 | 0.6753 | 0.68 | 0.6849 | 0.6894
318.15 K | 0.6007 | 0.6045 | 0.6085 | 0.6125 | 0.6164 | 0.6204 | 0.6244 | 0.6282

ClC(Cl)Cl + Cc1ccc(C)cc1
298.15 K, 101 kPa
Conditions | viscosity [mPa·s]
x1 = 0.4429 | 0.6167
x1 = 0.5074 | 0.6102
x1 = 0.5571 | 0.6084
x1 = 0.5997 | 0.6031
x1 = 0.6505 | 0.6003
x1 = 0.6897 | 0.5954
x1 = 0.7351 | 0.5903

CCCCCCCCCCCCCCCC + CCCCCCC
Conditions | viscosity [mPa·s]
293.17 K, 101 kPa, x1 = 0.097 | 0.553
293.17 K, 101 kPa, x1 = 0.195 | 0.73
293.17 K, 101 kPa, x1 = 0.492 | 1.475
293.17 K, 101 kPa, x1 = 0.785 | 2.597
298 K, 101 kPa, x2 = 0.5 | 1.377
298.15 K, 101 kPa, x1 = 0.211 | 0.7064
298.15 K, 101 kPa, x1 = 0.4067 | 1.102
298.15 K, 101 kPa, x1 = 0.5795 | 1.552
298.15 K, 101 kPa, x1 = 0.7867 | 2.202
298.15 K, 101.33 kPa, x2 = 0.1067 | 2.618
298.15 K, 101.33 kPa, x2 = 0.1981 | 2.268
298.15 K, 101.33 kPa, x2 = 0.3001 | 1.922
298.15 K, 101.33 kPa, x2 = 0.4055 | 1.603
298.15 K, 101.33 kPa, x2 = 0.5077 | 1.307
298.15 K, 101.33 kPa, x2 = 0.607 | 1.08
298.15 K, 101.33 kPa, x2 = 0.7086 | 0.8554
298.15 K, 101.33 kPa, x2 = 0.8028 | 0.68
298.15 K, 101.33 kPa, x2 = 0.9019 | 0.5217
303.15 K, 101 kPa, x1 = 0.097 | 0.485
303.15 K, 101 kPa, x1 = 0.195 | 0.632
303.15 K, 101 kPa, x1 = 0.492 | 1.233
303.15 K, 101 kPa, x1 = 0.785 | 2.079
318 K, 101 kPa, x2 = 0.5 | 1.005

ClC(Cl)Cl + CCCCn1cc[n+](C)c1.F[B-](F)(F)F
298.15 K, 101 kPa
Conditions | viscosity [mPa·s]
x1 = 0.1079 | 92.5
x1 = 0.2033 | 73.3
x1 = 0.7028 | 9.24

[I-].[Li+] + O
Conditions | viscosity [mPa·s]
293.15 K, 100 kPa, x1 = 0.005076 | 1.025
293.15 K, 101 kPa, x1 = 0.00701 | 1.029
293.15 K, 101 kPa, x1 = 0.01933 | 1.076
293.15 K, 101 kPa, x1 = 0.04884 | 1.205
293.15 K, 101 kPa, x1 = 0.06296 | 1.292
293.15 K, 101 kPa, x1 = 0.08324 | 1.429
293.15 K, 101 kPa, x1 = 0.1073 | 1.656
293.15 K, 101 kPa, x1 = 0.1418 | 2.218
303.15 K, 101 kPa, x1 = 0.0017 | 0.808
303.15 K, 101 kPa, x1 = 0.00416 | 0.813
303.15 K, 101 kPa, x1 = 0.00701 | 0.821
303.15 K, 101 kPa, x1 = 0.01933 | 0.866
303.15 K, 101 kPa, x1 = 0.02768 | 0.895
303.15 K, 101 kPa, x1 = 0.04884 | 0.977
303.15 K, 101 kPa, x1 = 0.06296 | 1.049
303.15 K, 101 kPa, x1 = 0.08324 | 1.178
303.15 K, 101 kPa, x1 = 0.1073 | 1.376
303.15 K, 101 kPa, x1 = 0.1418 | 1.819
310.15 K, 101 kPa, x1 = 0.000205 | 0.6972
310.15 K, 101 kPa, x1 = 0.00126 | 0.6998
310.15 K, 101 kPa, x1 = 0.001978 | 0.7017
310.15 K, 101 kPa, x1 = 0.002695 | 0.7035
310.15 K, 101 kPa, x1 = 0.003679 | 0.706
310.15 K, 101 kPa, x1 = 0.005197 | 0.7098
310.15 K, 101 kPa, x1 = 0.005988 | 0.7118
323.15 K, 101 kPa, x1 = 0.0017 | 0.555
323.15 K, 101 kPa, x1 = 0.00416 | 0.561
323.15 K, 101 kPa, x1 = 0.00701 | 0.567
323.15 K, 101 kPa, x1 = 0.01933 | 0.602
323.15 K, 101 kPa, x1 = 0.02768 | 0.628
323.15 K, 101 kPa, x1 = 0.04884 | 0.693
323.15 K, 101 kPa, x1 = 0.06296 | 0.752
323.15 K, 101 kPa, x1 = 0.08324 | 0.849
323.15 K, 101 kPa, x1 = 0.1073 | 1.002
323.15 K, 101 kPa, x1 = 0.1418 | 1.344
